Measured values: US20150056209A1, “PEPTIDE MIMOTOPES TO OXIDATION SPECIFIC EPITOPES” (The Regents of the University of California, priority 2012, published 2015)

Legend:
LRO4 [1] = test: Phage ELISA, binding of phage clones to coated LRO4; set-up: species or system murine; conditions: 10^10 pfu/ml, OD 405-490 nm
Description: (§1) Phage ELISA was performed as described by NEB with minor modifications. Ninety six-well ELISA plates (Nunc Maxisorp) were coated with 5 μg/mL LRO4 mAb or control IgM mAb in NaHCO3 buffer (pH 8.6) at 50 μL/well ON at 4° C. Wells were washed with TBS containing 0.5% Tween 20 and then blocked with blocking buffer (TBS-T containing 1% BSA) at 200 μL/well for 1 hour at RT. After further washing, 10^10 pfu/ml of phage amplificates diluted in blocking buffer were added to the wells at 50 μL/well for 2 hours at RT. Wells were washed again, and an HRP-labeled anti-M13 mAb conjugate (no. 27-9421-01; GE Healthcare, Amersham, UK) diluted 1:1,000 in blocking buffer was added for 1 hour at RT followed by the addition of an 2,2′-azino-bis(3-ethylbenzothiazoline-6-sulphonic acid) (ABTS) (Sigma-Aldrich) substrate solution for 1 hour at RT. The binding reactivity of selected phage clones was measured at OD 405-490 nm using a BioTek Synergy 2 plate reader.

isotype control IgM = test: Phage ELISA, binding of phage clones to isotype control IgM; conditions: 10^10 pfu/ml, OD 405-490 nm
Description: Briefly, LRO4 or a control isotype anti-KLH IgM Ab (C48-6; BD Bioscience-Pharmingen, USA) were coated in buffer containing 0.1 M NaHCO3 (pH 8.5) on ELISA plates (Nunc Maxisorp, Roskilde, Denmark) overnight (ON) at 4° C. at a concentration of 100 μg/ml for the 1st, 50 μg/ml for the 2nd, and 10 μg/ml for the 3rd biopanning round. The next day, wells were washed with TBS containing 0.05% v/v Tween 20 (TBS-T) and incubated with blocking buffer containing 0.1M NaHCO3 (pH 8.6) and 5 mg/mL bovine serum albumin (BSA) for 1 hour at room temperature (RT). After further washing with TBS-T, 10 μL of a library solution (containing 2×10^12 phages) diluted in 100 μl of blocking buffer were first added to wells coated with control IgM (negative selection) and then unbound phages were transferred to wells coated with LRO4 (positive selection) and incubated at RT. The incubation time for negative or positive selection was reduced from 60 min for the 1st round to 30 min for the 2nd as well as 3rd biopanning round. Thereafter, plates were washed 5 times with TBS-T to remove unbound phages. To further elute nonspecifically bound phages, wells were incubated with 100 μL of 100 μg/ml of native LDL for 1 hour at RT. After washing up to 5 times with TBS-T, bound phages were eluted with 100 μL of elution buffer containing 0.2 M glycine-HCl (pH 2.2) and 1 mg/mL BSA. Eluates were transferred to microfuge tubes and neutralized with 15 μL of 1 M Tris-HCL (pH 9.1). The eluted phages were then titrated and amplified for the next round of panning. The 2nd and 3rd biopanning round was carried out using amplified eluates from the first and second round as input phages, respectively. To remove nonspecifically bound phages and to increase the affinity in the subsequent biopanning rounds, wells were washed 15 and 30 times with 0.1% TBS-T in the 2nd and 0.5% TBS-T in the 3rd rounds of biopanning, respectively. In the last biopanning round, LRO4-bound phages were competitively eluted with increasing concentrations (3-150 μg/mL) of MDA-LDL diluted in blocking buffer followed by elution using elution buffer.
as §1

LRO4 [2] = test: Competitive phage ELISA, phage binding to LRO4 in presence of MDA-LDL; set-up: species or system murine; conditions: in the presence of 50 μg/mL MDA-LDL
Description: For competitive phage ELISA, plates were coated with 5 μg/mL LRO4 and binding of 25 μL of phage solution at 2×10^10 pfu/mL was tested in the presence of 25 μL of MDA-LDL at 100 μg/mL. Bound phages were detected as described above and data expressed as values obtained in presence of competitor (B) divided by the values obtained in the absence of competitor (B0). A reciprocal competition assay was performed in which 50 μL of 5 μg/mL MDA-LDL was coated on microtiter wells, and binding of LRO4 that was preincubated for 30 min at RT with a solution containing either no or 1×10^10 pfu/mL phages with or without peptide was tested by chemiluminescent ELISA.
Table 2A-B. Binding characteristics of MDA-phagotopes. Sequences and binding characteristics of selected phagotopes from (A) the Ph.D.-12 and (B) the Ph.D.7C7 libraries, respectively. Individual phages were selected and amplified after the third round of biopanning, and binding to an isotype control IgM, LRO4, and LRO4 in the presence of 50 μg/mL MDA-LDL was measured by phage ELISA, as described in Methods. Numbers indicate OD values or for inhibition studies the fraction of OD values obtained in the absence and presence of soluble MDA-LDL (B/B0). Sequences indicate amino acid residues in peptide sequences that were deducted from the DNA sequence of each phagotope. “X” indicates an unidentified amino acid at this position. * for clones with identical sequence representative data of one clone are provided. (SEQ ID NOs:6-37)

[3] = Table 2A, Ph.D.-12 library clones
[4] = Table 2B, Ph.D.7C7 library clones

Binding of phages to LR04 (LRO4 [1]; [3]) [OD]	Binding of phages to control IgM (isotype control IgM; [3]) [OD]	Inhibition of binding to LR04 (B/Bo) (LRO4 [2]; [3])	Substance	Binding of phages to LR04 (LRO4 [1]; [4]) [OD]	Binding of phages to control IgM (isotype control IgM; [4]) [OD]	Inhibition of binding to LR04 (B/Bo) (LRO4 [2]; [4])
0.98	0.02	0.18	HSWSNYWGHQHA [A32]			
0.82	0.11	0.11	NSRTNNSQWTFQ [A34]			
1.17	0.03	0.20	ESWNTNSWAMYFG [M2]			
1.35	0.03	0.40	HSLTNTQMTQLS [M31]			
			DWAPHFT [Cb2]	1.0	0.2	0.03
1.34	0.04	0.15	ASISNLTLSRFM [M15]			
			KNSXQPL [Ca4]	0.9	0.1	0.13
			QNSHMPL [Ca3]	0.5	0.1	0.04
			NNWNMPL [Ca1, Ca7]	0.8	0.1	0.04
			NNSHMPL [Ca9, Cb3, Ca8, Ca10]	0.9	0.2	0.04
1.56	0.03	0.10	HRLTNSEQAALP [M3, M5]			
1.16	0.03	0.10	HSLSNIQMATLA [M10, G8]			
			NNSXMPL [Ca6]	0.7	0.0	0.04
1.57	0.04	0.20	TAVTNSMMERLW [M8]			

Substance	Binding of phages to LR04 (LRO4 [1]; [3]) [OD]	Binding of phages to control IgM (isotype control IgM; [3]) [OD]	Inhibition of binding to LR04 (B/Bo) (LRO4 [2]; [3])	Binding of phages to LR04 (LRO4 [1]; [4]) [OD]	Binding of phages to control IgM (isotype control IgM; [4]) [OD]	Inhibition of binding to LR04 (B/Bo) (LRO4 [2]; [4])
HRMTNAMHHFMG [A38]	0.64	0.21	0.10			
NSWTNASLSTFH [A40]	0.89	0.04	0.10			
GWGNKTPSQDVH [A39]	1.19	0.05	0.19			
